Where two headings read alike, the source gives them in different places. Marks after values point to notes of the source that are not given here.
Key:
[1] = Solubility in buffer solution; format: physicochemical; details: buffer 10 mM Tris-HCl, pH 7.4, room temperature (20°C), 24 hours
Partition coefficient = format: physicochemical; details: pH 7.4, room temperature
[2] = Osmolality of the formulation; format: physicochemical; details: formulation 0.3 mol Gd/L
[3] = Viscosity of the formulation; format: physicochemical; details: formulation 0.3 mol Gd/L
r1-relaxivity at 1.41 T = format: physicochemical, human; details: for r1-Relaxivity in Human Plasma at 37°C, 1.5 T (per molecule): pH 7.4, per molecule
[4] = r1-relaxivity at 3.0 T in human plasma; format: physicochemical; details: for r1-Relaxivity in Human Plasma at 37°C, 3.0 T (per Gd): pH 7.4, per Gd; for r1-Relaxivity in Human Plasma at 37°C, 3.0 T (per molecule): pH 7.4, per molecule
[5] = Nuclear magnetic relaxation dispersion; format: physicochemical; details: 37°C
[6] = format: physicochemical; details: 37°C, pH 7.4, 21 days (3 weeks)
[7] = format: physicochemical; details: after 3 days
plasma proteins [8] = assay: Protein binding in rat plasma, equilibrium dialysis; format: in vitro ADME; details: 3 μmol Gd/L, 37°C, 2 hours
plasma proteins [9] = assay: Protein binding in human plasma, equilibrium dialysis; format: in vitro ADME; details: 3 μmol Gd/L, 37°C, 2 hours
[10] = Blood-to-plasma partition ratio; format: in vitro ADME; details: 6 human donors, 0.25 mmol Gd/L, 60 minutes, 37°C, mean ± SD
human hepatocytes = assay: Metabolism in human hepatocytes; format: in vitro ADME; details: 2.5 μmol/L (10 μmol Gd/L), 4 hours
rat hepatocytes = assay: Metabolism in rat hepatocytes; format: in vitro ADME; details: 2.5 μmol/L (10 μmol Gd/L), 4 hours
[11] = HPLC-ICP-MS analysis of rat urine for metabolites; format: in vivo; details: rat urine up to 6 hours after single IV 0.1 mmol Gd/kg bw
[12] = system: GS9L (rat glioblastoma) brain tumors; assay: Contrast-enhanced MRI of GS9L brain tumors in rats; format: in vivo; details: GS9L rats n = 4, 1.5 T, 5 minutes p.i., both 0.1 mmol Gd/kg bw, intraindividual
[13] = Number of inner sphere water molecules; format: physicochemical; details: per Gd
[14] = IV 0.1 mmol Gd/kg bw
[15] = rat
[16] = rat, 3-compartment model, listed as BAY 1747846
[17] = 7 days after single IV 0.1 mmol Gd/kg bw
[18] = 7 days after single IV 0.1 mmol Gd/kg bw, LLOQ 0.05

Structure (SMILES): CC(C(=O)NCC(=O)NCC(CNC(=O)CNC(=O)C(C)N1CCN(CC(=O)[O-])CCN(CC(=O)[O-])CCN(CC(=O)[O-])CC1)(CNC(=O)CNC(=O)C(C)N1CCN(CC(=O)[O-])CCN(CC(=O)[O-])CCN(CC(=O)[O-])CC1)CNC(=O)CNC(=O)C(C)N1CCN(CC(=O)[O-])CCN(CC(=O)[O-])CCN(CC(=O)[O-])CC1)N1CCN(CC(=O)[O-])CCN(CC(=O)[O-])CCN(CC(=O)[O-])CC1.[Gd+3].[Gd+3].[Gd+3].[Gd+3] (stereo not shown) [Gadoquatrane, tetragadolinium [4,10-bis(carboxylatomethyl)-7-{3,6,12,15-tetraoxo-16-[4,7,10-tris-(carboxyl-atomethyl)-1,4,7,10-tetraazacyclododecan-1-yl]-9,9-bis({[({2-[4,7,10-tris-(carboxylatomethyl)-1,4,7,10-tetraazacyclododecan-1-yl]propanoyl}amino)acetyl]-amino}methyl)-4,7,11,14-tetraazahepta-decan-2-yl}-1,4,7,10-tetraazacyclododecan-1-yl]acetate]
- Solubility [1]: 1.43 mol Gd/L
- Log P (1-Butanol/Buffer) (Partition coefficient): −4.32
- Osmolality at 37°C [2]: 294 (iso-osmolar to blood) mosmol/kg H2O
- Osmolality at 37°C ([2]; listed as gadoquatrane): 294 mosmol/kg H2O
- Viscosity at 37°C [3]: 1.22 mPa·s
- r1-Relaxivity in Human Plasma at 37°C, 1.5 T (per Gd) (r1-relaxivity at 1.41 T; 60 MHz (1.41 T), 37°C, pH 7.4, per Gd, mean ± SD, n = 6 batches): 11.8 ± 0.3 mM⁻¹ s⁻¹
- r1-Relaxivity in Human Plasma at 37°C, 1.5 T (per molecule) (r1-relaxivity at 1.41 T; 60 MHz (1.41 T), 37°C): 47.2 ± 1.0 mM⁻¹ s⁻¹
- r1-Relaxivity in Human Plasma at 37°C, 1.5 T (per molecule) (r1-relaxivity at 1.41 T; 60 MHz (1.41 T), 37°C, listed as gadoquatrane): 47.2 mM⁻¹ s⁻¹
- r1-relaxivity in human plasma, fold higher per Gd compared with established GBCAs (r1-relaxivity at 1.41 T; human plasma, per Gd, vs established (m)GBCAs): more than 2 fold
- r1-Relaxivity in Human Plasma at 37°C, 3.0 T (per Gd) [4]: 10.5 ± 0.3 mM⁻¹ s⁻¹
- r1-Relaxivity in Human Plasma at 37°C, 3.0 T (per Gd) ([4]; listed as gadoquatrane): 10.5 mM⁻¹ s⁻¹
- r1-Relaxivity in Human Plasma at 37°C, 3.0 T (per molecule) [4]: 41.9 ± 0.6 mM⁻¹ s⁻¹
- r1-Relaxivity in Human Plasma at 37°C, 3.0 T (per molecule) ([4]; listed as gadoquatrane): 41.9 mM⁻¹ s⁻¹
- NMRD r1-relaxivity per Gd, fold higher compared with gadobutrol, in human plasma ([5]; human plasma, up to 200 MHz (4.7 T)): 2 fold
- NMRD r1-relaxivity per Gd, fold higher compared with gadobutrol, in water ([5]; water, 20–200 MHz (0.47–4.7 T)): ~ 3 fold
- Total Gd release after 21 days in human serum [6]: no release of Gd^3+
- Decrease of the T1 relaxation rates (R1) in zinc transmetallation assay [7]: no Gd^3+ release
- Decrease of the T1 relaxation rates (R1) in zinc transmetallation assay ([7]; listed as gadoquatrane): no change
- Free fraction in plasma (fraction unbound) (plasma proteins [8]): 93%
- Free fraction in plasma (fraction unbound) (plasma proteins [9]): 96%
- Blood-to-plasma ratio [10]: 0.62 ± 0.06
- In vitro uptake or metabolic degradation in hepatocytes (human hepatocytes): No in vitro uptake or metabolic degradation
- In vitro uptake or metabolic degradation in hepatocytes (rat hepatocytes): No in vitro uptake or metabolic degradation
- Metabolic stability / formation of metabolites in urine [11]: high metabolic stability and no hint of formation of metabolites
- CNR (tumor-to-brain) compared with gadobutrol [12]: clearly higher CNR
- No. Inner Sphere Water Molecules (q) [13]: q = 1
- No. Inner Sphere Water Molecules (q) ([13]; listed as gadoquatrane): 1
- AUC^∞ ([14]; rat plasma): 183 ± 11 (5.8%) μmol·h/L
- γ-AUC ([14]; rat plasma): 1 % of AUC^∞
- γ-AUC ([14]; rat plasma, listed as BAY 1747846): 1.2 % of AUC^∞
- Clplasma ([14]; rat): 0.55 ± 0.03 (5.8%) L/h/kg
- Vss ([14]; rat): 0.33 ± 0.05 (14%) L/kg
- α t1/2 ([14]; rat, 3-compartment model, mean estimate ± SD (CV%)): 6.3 ± 1.5 (24%) min
- β t1/2 [14, 16]: 25 ± 1.6 (6.4%) min
- γ t1/2 [14, 16]: 13 ± 2.9 (22%) h
- Gadolinium concentration, Bone marrow [15, 17]: 0.413 ± 0.048 nmol Gd/g wet tissue
- Gadolinium concentration, Carcass [15, 17]: 0.693 ± 0.126 nmol Gd/g wet tissue
- Gadolinium concentration, Heart [15, 17]: 0.133 ± 0.014 nmol Gd/g wet tissue
- Gadolinium concentration, Intestine [15, 17]: 0.316 ± 0.120 nmol Gd/g wet tissue
- Gadolinium concentration, Kidney [15, 17]: 20.3 ± 1.37 nmol Gd/g wet tissue
- Gadolinium concentration, Liver [15, 17]: 0.564 ± 0.065 nmol Gd/g wet tissue
- Gadolinium concentration, Lung [15, 17]: 0.359 ± 0.024 nmol Gd/g wet tissue
- Gadolinium concentration, Mesenterial lymph nodes [15, 17]: 1.20 ± 0.336 nmol Gd/g wet tissue
- Gadolinium concentration, Muscle [15, 17]: 0.119 ± 0.021 nmol Gd/g wet tissue
- Gadolinium concentration, Skin [15, 17]: 0.271 ± 0.044 nmol Gd/g wet tissue
- Gadolinium concentration, Spleen [15, 17]: 0.654 ± 0.175 nmol Gd/g wet tissue
- Gadolinium concentration, Stomach [15, 17]: 0.182 ± 0.023 nmol Gd/g wet tissue
- Gadolinium concentration, Blood [15, 18]: <0.05* nmol Gd/g wet tissue
- Gadolinium concentration, Brain [15, 18]: <0.08‡ nmol Gd/g wet tissue
- Gadolinium concentration, Bone ([15]; femur, 7 days after single IV 0.1 mmol Gd/kg bw): 0.470 ± 0.201 nmol Gd/g wet tissue
- Amount of Gd recovered in Feces, 0–5 d ([15]; in vivo, iv): 1.35% ± 0.6%
- Amount of Gd recovered in Urine, 0–1 d ([15]; in vivo, iv): 96.4% ± 3.8%
- Amount of Gd recovered in Urine, 0–5 d ([15]; in vivo, iv): 96.9% ± 3.7%
- Total recovery of Gd, 0–7 d ([15]; in vivo, iv): 98.8% ± 6.2%
- Excreted within 7 days ([15]; single IV 0.1 mmol Gd/kg bw): > 99 % of the injected dose

From paper PMC9444293 (Investigative Radiology, 2022)
